Results as given in PubChem BioAssay (NCI).
Several values for one entry are separate records, joined by “and”; a condition that tells them apart may be missing. Identical values can stand only once.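 Each compound was tested at five concentrations against cells in 96-well plates for 48 hours. The concentration for 50% growth inhibition is given as GI50. The concentration for full growth arrest is given as TGI.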

How the values were obtained:
Assay in all cases: DTP human tumour cell line panel, 48 h
K-562 leukemia = tested on: K-562 leukemia
UACC-257 melanoma = tested on: UACC-257 melanoma
NCI-H23 lung = tested on: NCI-H23 lung
SK-MEL-5 melanoma = tested on: SK-MEL-5 melanoma
NCI-H226 lung = tested on: NCI-H226 lung
NCI/ADR-RES ovarian = tested on: NCI/ADR-RES ovarian
NCI-H522 lung = tested on: NCI-H522 lung
DU-145 prostate = tested on: DU-145 prostate
IGROV1 ovarian = tested on: IGROV1 ovarian
EKVX NSCLC = tested on: EKVX NSCLC

Compound | GI50 (K-562 leukemia) | TGI (K-562 leukemia) | GI50 (UACC-257 melanoma) | TGI (UACC-257 melanoma) | GI50 (NCI-H23 lung) | TGI (NCI-H23 lung) | GI50 (SK-MEL-5 melanoma) | TGI (SK-MEL-5 melanoma) | GI50 (NCI-H226 lung) | TGI (NCI-H226 lung) | GI50 (NCI/ADR-RES ovarian) | TGI (NCI/ADR-RES ovarian) | GI50 (NCI-H522 lung) | TGI (NCI-H522 lung) | GI50 (DU-145 prostate) | TGI (DU-145 prostate) | GI50 (IGROV1 ovarian) | TGI (IGROV1 ovarian) | GI50 (EKVX NSCLC) | TGI (EKVX NSCLC)
CCOc1nc(-c2ccccc2)cc2c(O)c(-c3nnco3)[nH]c(=O)c12 | 4.83 µM | > 100 µM | 3.2 µM | > 100 µM | 4.01 µM | > 100 µM | 2.16 µM | 8.18 µM | 6.25 µM | > 100 µM | 3.4 µM | > 100 µM | 3.09 µM | > 100 µM | 5.3 µM | > 100 µM | 3.63 µM | > 89.8 µM |  | 
CNCCNc1c2c(c(NCCNC)c3c(CN(C)C)c[nH]c13)C(=O)c1ccccc1C2=O | 1.81 µM | > 100 µM | 20.1 µM | 45.7 µM | 2.22 µM |  | 2.98 µM | 14.2 µM | 6.69 µM | 24.2 µM | 12.7 µM | 40.2 µM | 0.514 µM | 3.59 µM | 1.53 µM | 5.93 µM | 0.933 µM | 12.9 µM | 2.13 µM | 5 µM
C[C@H]1c2cccc(O)c2C(O)=C2C(=O)[C@]3(O)C(O)=C(C(N)=O)C(=O)[C@@H](N(C)C)[C@@H]3[C@@H](O)[C@@H]21 |  |  | 3.19 µM | 13.9 µM | 2.99 µM | 11.9 µM | 1.9 µM | 4.12 µM | 3.72 µM | 25.7 µM | 6.18 µM | 85.3 µM | 3.16 µM | 12.4 µM | 3.61 µM | 12.5 µM | 2.86 µM | 9.26 µM | 3.31 µM | 15.5 µM
COc1ccc(N(C)c2ncnc3occ(C)c23)cc1 | < 0.01 µM |  | 29.6 µM | > 100 µM | < 0.01 µM | > 100 µM | < 0.01 µM | < 0.0149 µM | < 0.01 µM | 0.0761 µM | < 0.01 µM | > 100 µM | < 0.01 µM | < 0.01 µM | < 0.01 µM | 0.0208 µM | < 0.01 µM | > 100 µM | < 0.01 µM | > 100 µM
CCCCCCCCCC/C=C/CC(=O)SCCNC(=O)CCNC(=O)[C@@H](O)C(C)(C)COP(=O)(O)OP(=O)(O)OCC1OC(n2cnc3c(N)ncnc32)C(O)C1OP(=O)(O)O (stereo not given in full) |  | > 10 µM |  | > 10 µM |  | > 10 µM |  | > 10 µM |  | > 10 µM |  | > 10 µM |  |  |  | > 10 µM |  | > 10 µM |  | > 10 µM
COc1cc(C(=O)c2cc(C)c3[nH]c4ccc(Cl)cc4c3c2C)cc(OC)c1OC | 0.035 µM | > 100 µM | 4.28 µM | 32.3 µM | 0.0444 µM | 7.43 µM | 0.0361 µM | 0.196 µM | 0.679 µM | 18.3 µM | 0.032 µM | 11.9 µM | 0.0291 µM | 1.95 µM | 0.0459 µM | 3.6 µM | 0.0438 µM | 12.3 µM | 0.254 µM | 23.4 µM
C#Cc1cccc(Nc2ncnc3cc(OC)c(OCCCCCCC(=O)NO)cc23)c1 | 0.0817 µM |  | 0.123 µM | 1.12 µM | 0.383 µM | 2.57 µM | 0.177 µM | 0.496 µM | 0.853 µM | 4.81 µM | 0.917 µM | 6.91 µM | 0.0305 µM | 0.43 µM | 0.136 µM | 4.45 µM | 0.0864 µM | 0.476 µM | 0.154 µM | 6.34 µM
CNCCCn1cc(C2=C(c3cn(C)c4ccccc34)C(=O)NC2=O)c2ccccc21 | 3.46 µM | 14.2 µM | 4.57 µM | 8.81 µM | 5.21 µM | 13.2 µM | 3.77 µM | 7.3 µM | 6.2 µM | 22.8 µM | 14.1 µM | 25 µM | 4.01 µM | 8.71 µM | 5.35 µM | 16.1 µM | 5.41 µM | 11.4 µM |  | 
Cn1cc(C2=C(c3ccc4ccccc4c3)C(=O)NC2=O)c2ccccc21 | 2.09 µM | > 25 µM | > 25 µM | > 25 µM | > 25 µM | > 25 µM | > 25 µM | > 25 µM | > 25 µM | > 25 µM | > 23.9 µM | > 25 µM | 12.1 µM | > 25 µM | > 25 µM | > 25 µM | > 19.5 µM | > 25 µM |  | 
CCC[CH2][Sn]([CH2]CCC)([CH2]CCC)[O]C(=O)CC | 0.237 µM |  | 0.145 µM | 0.296 µM | 0.149 µM | 0.615 µM | 0.139 µM | 0.27 µM |  |  | 0.37 µM | > 100 µM | 0.149 µM | 0.299 µM | 0.136 µM | 0.271 µM | 0.167 µM | 0.397 µM | 0.121 µM | 0.335 µM
O=C1NC(=Nc2ccccc2)S/C1=C\c1ccc2ncccc2c1 | 0.846 µM | > 25 µM | > 25 µM | > 25 µM | 5.89 µM | > 25 µM | > 25 µM | > 25 µM | > 25 µM | > 25 µM | > 6.88 µM | > 25 µM | > 12.3 µM | > 25 µM | > 25 µM | > 25 µM | > 7.5 µM | > 25 µM |  | 
C/C(=C\CCc1ccoc1)CC/C=C(\C)CCCC1=CC(=O)OC1 | 4.8 µM | > 100 µM | 2.81 µM | 11.3 µM | 4.74 µM | 29.6 µM | 2.55 µM | 6.66 µM | 11 µM | 29.4 µM | 5.42 µM | 31 µM | 5.45 µM | 22.2 µM | 24.8 µM | > 100 µM | 19.5 µM | > 100 µM |  | 
CC/C(=C(/c1ccc(OCCN(C)C)cc1)c1ccc(OC(=O)CCCCC(=O)c2c(C)[nH]c(/C=C3\N=C(c4ccc[nH]4)C=C3OC)c2C)cc1)c1ccccc1 | 3.16 µM | 12.6 µM | 12 µM | 28.9 µM | 12.7 µM | 29.7 µM | 1.61 µM | 3.11 µM | 14.2 µM | 34.3 µM | 12.6 µM | 46.8 µM | 3.59 µM | 14.3 µM | 7.73 µM | 21.1 µM | 13.3 µM | 46 µM |  | 
Ic1ccc(Nc2nc3nonc3nc2Nc2ccc(I)cc2)cc1 | 0.091 µM | > 100 µM | 0.2 µM | 0.772 µM |  |  | 0.137 µM | 0.352 µM |  |  | 0.313 µM | > 100 µM |  |  | 0.365 µM | > 100 µM | 0.46 µM | > 100 µM | 0.245 µM | > 100 µM
COC(=O)c1cc2c(cc1O)[C@@H](NC(C)=O)CCc1cc(OC)c(OC)c(OC)c1-2 | 0.0246 µM | > 100 µM | 0.0274 µM | > 100 µM | 0.0217 µM | 0.0848 µM and 0.0712 µM |  |  | 0.0309 µM |  | 0.0596 µM |  |  | 0.19 µM |  | > 100 µM |  |  |  | 
Clc1ccc2c(NCCCNc3nccc(Nc4ccc(Br)cc4)n3)ccnc2c1 |  |  | 1.87 µM | 3.4 µM | 1.74 µM | 3.27 µM | 1.48 µM | 2.84 µM | 2.74 µM | 7.37 µM | 1.79 µM | 3.42 µM | 1.93 µM | 3.52 µM | 1.86 µM | 3.31 µM |  |  |  | 
CCCCc1c(OC)cc(O)c2c1C(=O)c1[nH]c(C(=O)O)c(O)c(=O)c1C2=O |  | > 100 µM |  | 46.6 µM |  | 20.3 µM |  |  |  | 23.6 µM |  | 93.7 µM |  | 9.94 µM |  | > 100 µM |  | 64.2 µM |  | > 100 µM
CC(C)=C[C@@H]1C[C@H](C)[C@H]2CC[C@H](C)C3=C2[C@](O)(OC3=O)[C@]1(C)O | > 100 µM | > 100 µM | > 100 µM | > 100 µM |  |  | > 100 µM | > 100 µM | > 100 µM | > 100 µM | > 100 µM | > 100 µM | > 100 µM | > 100 µM | > 100 µM | > 100 µM | > 100 µM | > 100 µM | > 100 µM | > 100 µM
O=C(OCc1ccc2cccc(O)c2n1)N1CCN(C(=O)c2cc3cc(F)ccc3[nH]2)CC1 | 0.435 µM | 2.4 µM | 1.46 µM | 2.89 µM | 1.62 µM | 3.45 µM | 1.69 µM | 3.07 µM |  |  | 1.76 µM | 6.07 µM | 1.02 µM | 2.47 µM | 1.28 µM | 2.67 µM | 0.403 µM | 1.64 µM | 1.4 µM | 2.71 µM
C=C(F)C(=O)N1CCN(c2nc(OC[C@@H]3CCCN3C)nc3c2CCN(c2cccc4cccc(Cl)c24)C3)C[C@@H]1CC#N | 0.421 µM | 1.84 µM | 1.57 µM | 3.1 µM | < 0.01 µM | 1.58 µM | 1.63 µM | 3.06 µM |  |  | 0.601 µM | 3.19 µM | 0.441 µM | 1.73 µM | 1.04 µM | 2.87 µM | 1.31 µM | 3.2 µM | 1.93 µM | 7.53 µM
